Results published in patent US10401295B2, “Composition and method for monitoring lipid” (Memorial Sloan-Kettering Cancer Center, priority 2014, dated 2019).

Columns and labels:
[1] = tested on: HeLa cells; assay: hyperspectral imaging of CNOR emission in live HeLa cells; type: cell-based; details: for effect on blue-shifting of CNOR emission: HeLa cells, relative to control
Protocol: Cell Lines and Cell Culture Procedures: HeLa CCL-2 cells (ATCC, Manassas, Va., US) were grown under standard incubation conditions at 37° C. and 5% CO2 in sterile-filtered DMEM with 10% heat-inactivated FBS, 2.5% HEPES, 1% Glutamine, and 1% Penicillin/Streptomycin (all Gibco). For studies performed with homozygous mutant NPC, compound mutant heterozygote NPC, or wild-type fibroblasts, the cell lines GM18453, GM03123 or GM05659 (Coriell, Camden, N.J., US), respectively, were cultured in MEM with 10% FBS, 2.5% HEPES, and 1% Glutamine. Cells were plated on glass-bottom petri dishes, or lysine-covered glass dishes (MatTek) for fibroblasts. Unpurified SWCNT were incubated at 1 mg/L and separated SWCNT were incubated at 0.25 mg/L in media with cells for 30 minutes at 37° C. Depending on the experiment, cells were imaged immediately, or trypsinized (Gibco) and re-plated on a fresh glass-bottom petri dish followed by hyperspectral imaging. Pharmacological treatments on HeLa cells were performed with Nocodazole (Sigma, 10 μg/mL added after SWCNT incubation) or U18666A (Sigma, 3 μg/mL added 6 hours prior to SWCNT incubation). Fibroblast cells were incubated with hydroxypropyl-β-cyclodextrin (Sigma, 100 μM) 6 hours prior to SWCNT incubation. Cells were incubated for 30 minutes with 0.25 mg/L of the SWCNTs before rinsing and replacing with fresh media. Hyperspectral imaging was conducted immediately afterwards and 24 hours later. A DNA-encapsulated nanotube complex, undergoing a continuous solvatochromic shifting response, spatially and temporally tracked endosomal maturation in live HeLa cells. Separated (8,6) nanotubes encapsulated by an ss(GT)6 oligonucleotide, with a median length of 236 nm, were incubated with HeLa cells at 0.25 mg/L for 30 minutes before rinsing and replacing with fresh media. The wavelength distribution of the nanotube complex in endosomes, measured immediately after uptake, was centered at 1200.7±0.4 nm, near the bulk value observed in water. In lysosomes, after 6 hours post-incubation, the wavelength distribution broadened before blue-shifting to 1194.3±0.7 nm at the 24-hour timepoint (FIG. 2, panel A). A small red-shifted nanotube population, with a mean wavelength of 1205 nm, appeared at the 6-hour time point but disappeared by 24 hours. The relative mean wavelength of each emissive region of interest (ROI) was laid over a transmitted light image of the cells, resulting in spatial visualization of the spectral distribution (FIG. 2, panel B). […] The interaction of GT6-(8,6) nanotubes with RAW 264.7 macrophages was characterized, by incubating 2 pM of nanotubes in cell media for 30 minutes at 37° C. Under these conditions, the majority of cells efficiently took up nanotubes via energy-dependent mechanisms.

[2] = tested on: HeLa cells; assay: filipin staining of unesterified cholesterol in HeLa cells; type: cell-based; details: fixed HeLa cells, versus control
Protocol: Filipin staining was conducted by fixing cells with 1.5% paraformaldehyde in PBS for 20 minutes. Cells were then labeled with 50 μg/mL filipin for 45 minutes. After washing, filipin images were acquired using 350/50 nm excitation and 460/50 mm emission filters with a 400 nm dichroic long-pass filter (Olympus).

[3] = tested on: RAW 264.7 macrophages; assay: CNOR emission in RAW 264.7 macrophages (lysosomal lipid accumulation); type: cell-based; details: for blue shift compared with control macrophages: DMEM+10% FBS, U18666A, 10 uM Lalistat
Protocol: A DNA-encapsulated nanotube complex, undergoing a continuous solvatochromic shifting response, spatially and temporally tracked endosomal maturation in live HeLa cells. Separated (8,6) nanotubes encapsulated by an ss(GT)6 oligonucleotide, with a median length of 236 nm, were incubated with HeLa cells at 0.25 mg/L for 30 minutes before rinsing and replacing with fresh media. The wavelength distribution of the nanotube complex in endosomes, measured immediately after uptake, was centered at 1200.7±0.4 nm, near the bulk value observed in water. In lysosomes, after 6 hours post-incubation, the wavelength distribution broadened before blue-shifting to 1194.3±0.7 nm at the 24-hour timepoint (FIG. 2, panel A). A small red-shifted nanotube population, with a mean wavelength of 1205 nm, appeared at the 6-hour time point but disappeared by 24 hours. The relative mean wavelength of each emissive region of interest (ROI) was laid over a transmitted light image of the cells, resulting in spatial visualization of the spectral distribution (FIG. 2, panel B). […] The interaction of GT6-(8,6) nanotubes with RAW 264.7 macrophages was characterized, by incubating 2 pM of nanotubes in cell media for 30 minutes at 37° C. Under these conditions, the majority of cells efficiently took up nanotubes via energy-dependent mechanisms.
RAW macrophages were incubated in lipoprotein depleted serum (LPDS) for 24 hours. Incubation in these conditions reduces the lipid content of the lysosomes and increases the number of surface receptors for acetylated LDL (Ac-LDL) on the cell surface. To induce lipid accumulation in the lysosomes, Ac-LDL and U18666A (a cholesterol transport inhibitor) were introduced to cells incubating in the lipoprotein depleted serum. […]
The reporter detected Wolman's disease, a lysosomal storage disorder characterized by the accumulation of esterified cholesterol in the lysosomes due to a non-functioning lysosomal acid lipase (LAL). […]

[4] = tested on: NPC1 fibroblasts (compound heterozygous mutations of the NPC1 gene); assay: reporter emission in compound heterozygous NPC1 patient fibroblasts; type: cell-based, human
Protocol: (§1) Cell Lines and Cell Culture Procedures: HeLa CCL-2 cells (ATCC, Manassas, Va., US) were grown under standard incubation conditions at 37° C. and 5% CO2 in sterile-filtered DMEM with 10% heat-inactivated FBS, 2.5% HEPES, 1% Glutamine, and 1% Penicillin/Streptomycin (all Gibco). For studies performed with homozygous mutant NPC, compound mutant heterozygote NPC, or wild-type fibroblasts, the cell lines GM18453, GM03123 or GM05659 (Coriell, Camden, N.J., US), respectively, were cultured in MEM with 10% FBS, 2.5% HEPES, and 1% Glutamine. Cells were plated on glass-bottom petri dishes, or lysine-covered glass dishes (MatTek) for fibroblasts. Unpurified SWCNT were incubated at 1 mg/L and separated SWCNT were incubated at 0.25 mg/L in media with cells for 30 minutes at 37° C. Depending on the experiment, cells were imaged immediately, or trypsinized (Gibco) and re-plated on a fresh glass-bottom petri dish followed by hyperspectral imaging.
In a similar procedure to the experiment with homozygous NPC cells, fibroblasts with the compound heterozygous mutation of the NPC1 gene were plated on a poly-d-lysine-coated glass-bottomed petri-dish and imaged at different time points after an initial 30 minute incubation with the SWCNTs. Histograms of the wavelength distribution profile of the SWCNTs were obtained. […]

[5] = tested on: NPC fibroblasts (homozygous mutation of the NPC1 gene); assay: CNOR emission in homozygous NPC patient fibroblasts; type: cell-based, human
Protocol: as §1
Pharmacological treatments on HeLa cells were performed with Nocodazole (Sigma, 10 μg/mL added after SWCNT incubation) or U18666A (Sigma, 3 μg/mL added 6 hours prior to SWCNT incubation). […]
Niemann Pick Type-C(NPC) is a lysosomal storage disorder characterized by massive accumulation of unesterified cholesterol in the lysosomes of patient fibroblasts. […]

Molecule: Cl.N [NH4Cl]
- effect on CNOR emission populations ([1]; 50 mM added 6 hours after incubation with the CNOR): blue-shifted population remained unaffected while the red-shifted population was depleted

Molecule: CCN(CC)CCO[C@H]1CC[C@@]2(C)C(=CC[C@@H]3[C@@H]2CC[C@]2(C)C(=O)CC[C@@H]32)C1 [U18666A]
- intensity of filipin in the cell interior [2]: increased greatly
- blue shift compared with control macrophages [3]: ~8 nm
- CNOR blue-shift in drug-treated cells relative to drug-free control ([3]; RAW 264.7 macrophages): 11.1±1.1 nm
- further increase in blue shift than in untreated control cells ([1]; 3 μg/mL for six hours before incubation with the CNOR, at 24 hours): 3.8±0.7 nm
- effect on blue-shifting of CNOR emission [1]: enhanced

Molecule: COC(=O)Nc1nc2ccc(C(=O)c3cccs3)cc2[nH]1 [nocodazole]
- effect on blue-shifting of CNOR emission [1]: prevented the blue-shifting
- mean CNOR emission ([1]; nocodazole 10 μg/mL, up to 24 hours after internalization, control 1194.28±0.73): 1200.07±1.4 nm

Molecule: Lalistat
- blue shift compared with control macrophages [3]: ~8 nm

Molecule: hydroxypropyl-β-cyclodextrin [HPβCD]
- red-shift of nanotube emission ([4]; 100 uM for 24 hours, 24 hours after nanotube addition): approximately 4 nm
- emission in pretreated NPC1 cells versus WT fibroblasts ([4]; pre-treated 24 hours prior to nanotube addition): identical emission values
- effect on CNOR blue-shift in NPC cells ([5]; HPβCD for additional 24 hours, after imaging at 24 hours): reversal of the CNOR blue-shift
- effect of pre-treatment on CNOR fluorescence shifting in diseased cells ([5]; pre-treatment before CNOR incubation): prevented CNOR fluorescence from shifting
